Experimental data reported in US20250320215A1, “SALTS OF N-[4-(4-[[2-(DIMETHYLAMINO)ETHYL]AMINO]-3-METHYL-1H-PYRAZOLO[3,4-D]PYRIMIDIN-6-YL)-2-FLUOROPHENYL]-2,5-DIFLUOROBENZENESULFONAMIDE AND CRYSTALLINE FORMS THEREOF” (THRYV THERAPEUTICS INC, priority 2022, published 2025).
≈ marks a conversion by molar mass, not a printed value. One block for each compound: values may come before it.

Columns and labels:
Assay type in all cases: physicochemical
[1] = pKa values and protonation state of Compound 1
[2] = Solubility estimates by aliquot addition method in various solvents; conditions: thermodynamic from solid
Experimental: Solubility estimates were conducted using an aliquot addition method in a variety of solvents at ambient temperature.
Samples with solvents with poor solubility were heated at 50° C.

[3] = Drying, physical stability of the form
Experimental: After being subjected to drying in a vacuum oven for 1 day at 62-72° C., Form A was characterized by XRPD (FIG. 22: pre-DVS) and proton NMR (FIG. 15).
Form E was obtained by slow cooling crystallization in NMP (FIG. 43). The unstable form has not been characterized further. A clear solution of Compound 4, Form B was dissolved (30 mg) in NMP at 50° C. and cooled from 50° C. to 2° C.

[4] = Solubility of the salts in water / MTBE
Experimental: Solubility in water is >25 mg/mL.

[5] = Dynamic vapor sorption/desorption (DVS) with post-DVS XRPD; conditions: for Post-DVS XRPD: XRPD after DVS versus before
Experimental: Moisture sorption/desorption data were collected on a DVS Intrinsic. 7-20 mg of a sample was placed into a tared sample chamber and automatically weighed. The anhydrates were analyzed with the following setting parameters:
DVS experiments (FIGS. 17, 19, 21, 34, 35, 48 and 50) and XRPD post-DVS experiments (FIGS. 18, 20, 22, 36, 49 and 51) were conducted in order to study the deliquescence behaviour of the crystalline salts upon expose to humidity.

SMILES: Cc1n[nH]c2nc(-c3ccc(NS(=O)(=O)c4cc(F)ccc4F)c(F)c3)nc(NCCN(C)C)c12 [Compound 4 Form E]
form conversion after drying ([3]; obtained by cooling in NMP from 50° C. to 2° C.): converted to Form D

SMILES: Cc1n[nH]c2nc(-c3ccc(NS(=O)(=O)c4cc(F)ccc4F)c(F)c3)nc(NCCN(C)C)c12 [Compound 2]
Solubility in water ([4]; water): < 1000 µg/mL
Post-DVS XRPD [5]: No change
wt % gain (DVS) ([5]; from 5 to 95% RH): 0.4 wt %

More lines, now with the values ahead:

pKa ([1]; first of four pKa values): 2.7
pKa ([1]; fourth of four pKa values): 11.8
Charge (dominant protonation state) ([1]; pH 5.81-8.85): Neutral (Zwitterion)
pKa ([1]; second of four pKa values): 5.81
pKa ([1]; third of four pKa values): 8.85
solubility ([2]; ACN, 50 °C, organic solvent or mixture, read-out: Solubility at 50° C.): < 1000 µg/mL
solubility ([2]; ACN, organic solvent or mixture, read-out: Solubility at RT): < 1000 µg/mL
solubility ([2]; DCM, 50 °C, organic solvent or mixture, read-out: Solubility at 50° C.): < 1000 µg/mL
solubility ([2]; DCM, organic solvent or mixture, read-out: Solubility at RT): < 1000 µg/mL
solubility ([2]; DMF, organic solvent or mixture, read-out: Solubility at RT): 33000 µg/mL (≈ 65.3 mM)
solubility ([2]; DMSO, organic solvent or mixture, read-out: Solubility at RT): 41000 µg/mL (≈ 81.1 mM)
solubility ([2]; EtOAc, 50 °C, organic solvent or mixture, read-out: Solubility at 50° C.): < 3000 µg/mL
solubility ([2]; EtOAc, organic solvent or mixture, read-out: Solubility at RT): < 3000 µg/mL
solubility ([2]; EtOH, 50 °C, organic solvent or mixture, read-out: Solubility at 50° C.): < 2000 µg/mL
solubility ([2]; EtOH, organic solvent or mixture, read-out: Solubility at RT): < 2000 µg/mL
solubility ([2]; IPA, 50 °C, organic solvent or mixture, read-out: Solubility at 50° C.): < 2000 µg/mL
solubility ([2]; IPA, organic solvent or mixture, read-out: Solubility at RT): < 2000 µg/mL
solubility ([2]; MTBE, 50 °C, organic solvent or mixture, read-out: Solubility at 50° C.): < 2000 µg/mL
solubility ([2]; MTBE, organic solvent or mixture, read-out: Solubility at RT): < 2000 µg/mL
solubility ([2]; MeOH, 50 °C, organic solvent or mixture, read-out: Solubility at 50° C.): > 1000 µg/mL
solubility ([2]; MeOH, organic solvent or mixture, read-out: Solubility at RT): < 1000 µg/mL
solubility ([2]; THF, 50 °C, organic solvent or mixture, read-out: Solubility at 50° C.): > 1000 µg/mL
solubility ([2]; THF, organic solvent or mixture, read-out: Solubility at RT): < 1000 µg/mL
solubility ([2]; acetone, 50 °C, organic solvent or mixture, read-out: Solubility at 50° C.): < 1000 µg/mL
solubility ([2]; acetone, organic solvent or mixture, read-out: Solubility at RT): < 1000 µg/mL
solubility ([2]; water, 50 °C, water, read-out: Solubility at 50° C.): < 2000 µg/mL
solubility ([2]; water, read-out: Solubility at RT): < 2000 µg/mL
SMILES: Cc1n[nH]c2nc(-c3ccc(NS(=O)(=O)c4cc(F)ccc4F)c(F)c3)nc(NCCN(C)C)c12 [Compound 1, N-[4-(4-[[2-(dimethylamino)ethyl]amino]-3-methyl-1H-pyrazolo[3,4-d]pyrimidin-6-yl)-2-fluorophenyl]-2,5-difluorobenzenesulfonamide]

solubility at 1 day ([4]; water, thermodynamic from solid): < 1000 µg/mL
Post-DVS XRPD [5]: No change
wt % gain (DVS) ([5]; from 5 to 96% RH): 2.1 wt %
SMILES: Cc1n[nH]c2nc(-c3ccc(NS(=O)(=O)c4cc(F)ccc4F)c(F)c3)nc(NCCN(C)C)c12.Cl [Compound 3 Form A]

solubility ([4]; MTBE, organic solvent or mixture, thermodynamic from solid, MTBE at RT): < 2000 µg/mL
Solubility in water ([4]; water): > 25000 µg/mL
Comments: hygroscopicity (DVS) [5]: Hygroscopic
hygroscopicity [5]: hygroscopic
Post-DVS XRPD [5]: No change
wt % gain (DVS) ([5]; from 5 to 75% RH): 1.3 wt %
wt % gain (DVS) ([5]; from 75 to 96% RH): 3.2 wt %
Reversibility (DVS) ([5]; sorption/desorption): Reversible
physical stability on drying ([3]; vacuum oven for a day at 62-72° C.): retain its crystalline form
SMILES: Cc1n[nH]c2nc(-c3ccc(NS(=O)(=O)c4cc(F)ccc4F)c(F)c3)nc(NCCN(C)C)c12 [Compound 4 Form A]
